Experimental data reported in US20240082406A1, “BENZOHETEROCYCLE SUBSTITUTED TETRAHYDROISOQUINOLINE COMPOUND” (SHANGHAI JEMINCARE PHARMACEUTICAL CO., LTD, priority 2020, published 2024).

Assays:
[1] = system: Sprague-Dawley rats; assay: Inhibition of phosphate and sodium absorption in the intestine of rats by a single dose; type: in vivo, rat; details: normal rats
Protocol: Compound D1-P1-S was evaluated by measuring urinary phosphorus, urinary sodium concentration and fecal form.
Six-week-old Sprague-Dawley rats were purchased from Beijing Vital River Laboratory Animal Technology Co., Ltd. Two animals per cage were placed in SPF class animal rooms for acclimatization for about a week. Throughout the study period, animals were fed feed and water freely and the light cycle was 12 h light/12 h dark. Animal groups: vehicle group, n=5; tenapanor 0.3 mg/kg group, n=5; D1-P1-S 0.03 mg/kg group, n=5; D1-P1-S 0.1 mg/kg, n=5; D1-P1-S 0.3 mg/kg, n=5; D1-P1-S1.0 mg/kg, n=5.
On the day of the experiment, after 8 hours of fasting, the animals were administered the test compound or solvent (0.5% Tween 80+99.5% distilled water) by gavage. The animals were then transferred into metabolic cages for single-cage feeding, and the feed was restored. After 16 hours of administration, urine samples were collected and food consumption was recorded, and the fecal form in the collection funnel was evaluated by two independent observations. Standard for fecal form score: 1, normal pellets; 2, slightly soft feces (pellets adhered to the side wall of the collector due to moisture); 3, soft feces (loss the normal shape of the pellets); 4, loose and amorphous (completely loss shape, with blot pattern); 5, diarrhea (watery feces). Fecal form score (FFS) in rats was determined by averaging two independent observation scores for all rats within the same group (n=5); the vehicle group mean was 1.
The urine was centrifuged at 3220 g for 5 minutes at 4° C., and the urinary phosphorus concentration (phosphomolybdic acid UV endpoint colorimetric method) and urinary sodium concentration (ion selective electrode method) were measured.
(§1) Results were indicated as mean±standard error (Means±SEM). Urinary phosphorus excretion amount (or urinary sodium excretion amount) in rats was standardized corrected against respective dietary phosphorus (or sodium) intake, and the formula was: standardized correction value of urinary phosphorus excretion amount (indicated as nP)=urinary phosphorus excretion amount÷dietary phosphorus intake amount; standardized correction value of urinary sodium excretion amount (indicated as nNa)=urinary sodium excretion amount÷dietary sodium intake amount; fecal form score was analyzed by monofactorial variance, and verified by non-parametric test. *, p<0.05; **, p<0.01; * p<0.001; ****, p<0.0001.

[2] = system: Sprague-Dawley rats; assay: Effects of multiple administrations on serum phosphorus concentration in rats; type: in vivo, rat; details: for 24 h nP, course: after 15 days
Protocol: Compound D1-P1-S was evaluated by measuring serum phosphorus concentration, urinary phosphorus, urinary sodium concentration and fecal form in rats.
Six-week-old Sprague-Dawley rats were purchased from Beijing Vital River Laboratory Animal Technology Co., Ltd. Two animals per cage were placed in SPF class animal rooms for acclimatization for about a week. Throughout the study period, animals were fed feed and water freely and the light cycle was 12 h light/12 h dark. Animal groups: vehicle group, n=5; Tenapanor 0.05 mg/kg, n=5; D1-P1-S 0.01 mg/kg, n=5; D1-P1-S 0.05 mg/kg, n=5; D1-P1-S 0.5 mg/kg, n=5; D1-P1-S 1.0 mg/kg, n=5.
After the start of the experiment, the feeding rhythm of the rats was adjusted to diurnal feeding by fasting overnight for 16 hours and recovering feed for 8 hours during the day. After the administration started, the test compound or the solvent (0.5% Tween 80+99.5% distilled water) was gavaged twice a day during the feeding period, with an interval of 4 hours, for 14 consecutive days. Animal body weight and food consumption were measured every day, serum phosphorus concentration (including baseline value before administration), 24-hour urinary phosphorus excretion amount, and 24-hour urinary sodium excretion amount were measured 1-2 times a week, and feces form in the collection funnel was scored (through two independent observations to assess fecal form). Standard for fecal form score: 1, normal pellets; 2, slightly soft feces (pellets adhered to the side wall of the collector due to moisture); 3, soft feces (loss the normal shape of the pellets); 4, loose and amorphous (completely loss shape, with blot pattern); 5, diarrhea (watery feces). Fecal form score (FFS) in rats was determined by averaging two independent observation scores for all rats within the same group (n=5); the vehicle group mean was 1.
After standing at room temperature for 2 hours, the blood was centrifuged at 4500 g for 10 minutes at 4° C.; and the urine was centrifuged at 3220 g for 5 minutes at 4° C., and the serum phosphorus concentration and urinary phosphorus concentration (phosphomolybdic acid UV endpoint colorimetric method), urinary sodium concentration (indirect ion electrode method) were measured.
as §1, with “error (Means±SEM), n=5 animals/group.” for “error (Means±SEM).”, “by two-way” for “by monofactorial”, “p<0.01; ***,” for “p<0.01; *”, “****, p<[…].” for “****, p<0.0001.”

[3] = 1 day of treatment at 0.01, 0.05, 0.5 and 1.0 mg/kg

For `CN1Cc2c(Cl)cc(Cl)cc2C(c2ccc3cn(CCOCCOCCNC(=O)NCCCCNC(=O)NCCOCCOCCn4cc5ccc([C@@H]6CN(C)Cc7c(Cl)cc(Cl)cc76)cc5n4)nc3c2)C1` (stereo partly drawn) [Embodiment D1-P1-S], the “urinary phosphorus excretion amount, dose dependence” value ([1]; single gavage 0.03-1.0 mg/kg, urine collected after 16 hours) was “dose-effect relationship”, the “urinary sodium excretion amount” value ([1]; single gavage, 16 h urine) was “significantly reduce” and the “urinary phosphorus excretion amount” value ([1]; single gavage, doses of 0.3 mg/kg and 1.0 mg/kg, 16 h urine) was “significantly reduce”. The “effect in reducing urinary phosphorus excretion amount compared with Tenapanor” value ([1]; single gavage, same dose (0.3 mg/kg)) was “better than Tenapanor”, the “water content in rat feces (fecal form)” value ([1]; single gavage, with increasing dose) was “tendency of increasing” and the “24 h nNa (urinary sodium excretion / dietary sodium intake) vs solvent group” value [2, 3] was “decreased significantly”. For the same compound, the “24 h nP (urinary phosphorus excretion / dietary phosphorus intake) vs solvent group” value [2, 3] was “tended to decrease”, the “fecal form score vs solvent control” value ([2]; 1 day of treatment at 0.05, 0.5 and 1.0 mg/kg) was “significantly increased” and the “24 h nP vs solvent group” value ([2]; 1 day of treatment, 1.0 mg/kg) was “significantly decreased”. The “24 h nP vs solvent group” value ([2]; 10 days of treatment at 0.01, 0.05, 0.5 and 1.0 mg/kg) was “decreased significantly”, the “24 h nNa” value ([2]; after 10 days of treatment, 0.01 mg/kg and 0.05 mg/kg) was “increasing trend” and the “24 h nP, course” value [2] was “tended to be stable”. For the same compound, the “24 h nP, course” value ([2]; low dose group (0.01 mg/kg)) was “tended to increase”, the “serum phosphorus, course after 10 days” value ([2]; all dose groups except the highest dose group of 1.0 mg/kg) was “tended to be stable” and the “serum phosphorus concentration vs solvent control” value ([2]; gavage twice a day, 0.5 mg/kg or 1.0 mg/kg for 4 days) was “significantly decreased”. For the same compound, the loose feces ([2]; high doses of 0.5 mg/kg and 1.0 mg/kg, observed less often as administration continued) was “more severe loose feces”, the loose feces ([2]; low dose of 0.01 mg/kg) was “no rats had loose feces” and the “serum phosphorus concentration vs solvent control” value ([2]; twice a day, 10 days of treatment at 0.01, 0.05, 0.5, 1.0 mg/kg) was “decreased significantly”.
